Laboratory results reported in patent US9688691B2, “Macrocyclic quinazole derivatives and their use as MTKI” (Janssen Pharmaceutica NV, priority 2004, dated 2017).

Key:
Type in all cases: biochemical
Bmx (h) = biological target: T1, Bmx (h) (Homo sapiens, UniProt P51813); assay: Kinase profiling, glass-fiber filter technology: Bmx; details: test concentration of 10^−6 M; read-out: Bmx inhibition score
T1 sequence (P51813 1-675): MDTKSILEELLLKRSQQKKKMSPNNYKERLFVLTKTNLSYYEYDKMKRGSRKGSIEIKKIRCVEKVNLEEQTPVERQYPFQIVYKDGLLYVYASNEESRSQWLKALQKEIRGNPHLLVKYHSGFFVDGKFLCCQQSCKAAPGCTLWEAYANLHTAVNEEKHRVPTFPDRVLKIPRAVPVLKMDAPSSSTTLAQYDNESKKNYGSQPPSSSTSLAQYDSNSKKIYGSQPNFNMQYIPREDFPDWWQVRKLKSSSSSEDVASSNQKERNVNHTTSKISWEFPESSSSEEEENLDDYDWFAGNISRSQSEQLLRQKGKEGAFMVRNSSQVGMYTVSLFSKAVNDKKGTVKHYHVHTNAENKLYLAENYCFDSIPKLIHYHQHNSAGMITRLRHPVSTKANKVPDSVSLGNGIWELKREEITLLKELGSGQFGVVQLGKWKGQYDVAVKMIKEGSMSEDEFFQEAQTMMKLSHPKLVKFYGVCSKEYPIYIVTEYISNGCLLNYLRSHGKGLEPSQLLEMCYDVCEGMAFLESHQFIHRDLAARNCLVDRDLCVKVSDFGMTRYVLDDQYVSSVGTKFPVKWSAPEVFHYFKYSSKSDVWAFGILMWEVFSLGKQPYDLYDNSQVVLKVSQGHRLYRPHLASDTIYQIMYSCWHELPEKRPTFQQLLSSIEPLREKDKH
Method: (§1) The in vitro inhibition of a panel of kinases was assessed using the glass-fiber filter technology as described by Davies, S. P. et al., Biochem J. (2000), 351; p. 95-105.
(§2) In the glass-fiber filter technology the activity of the kinase of interest is measured using an appropriate substrate that is incubated with the aforementioned kinase protein in the presence of (^33P) radiolabeled ATP. (^33P) Phosporylation of the substrate is subsequently measured as radioactivity bound on a glassfiber-filter.
(§3) All kinases are pre-diluted to a 10× working concentration prior to addition into the assay. The composition of the dilution buffer for each kinase is detailed below.
(§4) All substrates are dissolved and diluted to working stocks in de-ionised water.
(§5) In a final reaction volume of 25 μl, Bmx (h) (5-10 mU) is incubated with 8 mM MOPS pH 7.0, 0.2 mM EDTA, 0.1 mg/ml poly(Glu, Tyr) 4:1, 10 mM MgAcetate and [γ-33P-ATP] (specific activity approx. 500 cpm/pmol, concentration as required). The reaction is initiated by the addition of the MgATP mix. After incubation for 40 minutes at room temperature, the reaction is stopped by the addition of 5 μl of a 3% phosphoric acid solution. 10 μl of the reaction is then spotted onto a Filtermat A and washed three times for 5 minutes in 75 mM phosphoric acid and once in methanol prior to drying and scintillation counting.

Yes (h) = Yes (h) (Homo sapiens, UniProt P07947); assay: Kinase profiling, glass-fiber filter technology: Yes; details: test concentration of 10^−6 M; read-out: Yes inhibition score
Sequence of Yes (h) (P07947 whole entry): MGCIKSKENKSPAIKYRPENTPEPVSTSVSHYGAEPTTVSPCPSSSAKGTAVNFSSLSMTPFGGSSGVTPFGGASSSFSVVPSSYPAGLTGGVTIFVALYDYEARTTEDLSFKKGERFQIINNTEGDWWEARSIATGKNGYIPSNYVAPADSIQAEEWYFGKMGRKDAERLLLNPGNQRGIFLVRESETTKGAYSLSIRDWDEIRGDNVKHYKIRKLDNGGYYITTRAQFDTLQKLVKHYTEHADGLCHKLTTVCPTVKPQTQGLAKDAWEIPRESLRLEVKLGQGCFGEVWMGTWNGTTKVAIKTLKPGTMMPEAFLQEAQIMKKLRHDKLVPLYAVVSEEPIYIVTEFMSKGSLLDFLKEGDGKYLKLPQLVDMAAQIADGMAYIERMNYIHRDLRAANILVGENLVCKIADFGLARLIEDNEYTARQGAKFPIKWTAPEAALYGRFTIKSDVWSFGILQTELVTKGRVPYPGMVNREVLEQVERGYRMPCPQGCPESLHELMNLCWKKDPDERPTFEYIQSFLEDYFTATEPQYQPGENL
Method: as §1, §2, §3, §4
as §5, with “Yes” for “Bmx”, “[γ-^33P-ATP]” for “[γ-33P-ATP]”

Fyn human = Fyn human (Homo sapiens, UniProt P06241); assay: Kinase profiling, glass-fiber filter technology: Fyn; details: test concentration of 10^−6 M; read-out: Fyn inhibition score
Sequence of Fyn human (P06241 whole entry): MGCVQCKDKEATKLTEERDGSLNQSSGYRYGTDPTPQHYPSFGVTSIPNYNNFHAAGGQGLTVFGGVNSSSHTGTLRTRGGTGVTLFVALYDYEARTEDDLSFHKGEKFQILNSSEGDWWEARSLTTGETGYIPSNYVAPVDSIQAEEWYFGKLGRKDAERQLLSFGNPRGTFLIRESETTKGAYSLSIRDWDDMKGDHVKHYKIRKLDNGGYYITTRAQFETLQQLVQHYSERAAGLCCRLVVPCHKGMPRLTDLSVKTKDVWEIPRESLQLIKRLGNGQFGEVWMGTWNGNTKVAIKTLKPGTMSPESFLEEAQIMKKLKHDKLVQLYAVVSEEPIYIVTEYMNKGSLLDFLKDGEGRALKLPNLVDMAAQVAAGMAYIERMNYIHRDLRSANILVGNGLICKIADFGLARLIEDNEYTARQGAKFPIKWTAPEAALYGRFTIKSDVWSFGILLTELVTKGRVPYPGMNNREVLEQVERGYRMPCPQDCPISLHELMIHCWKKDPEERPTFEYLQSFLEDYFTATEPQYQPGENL
Method: as §1, §2, §3, §4
In a final reaction volume of 25 μl, Fyn human (5-10 mU) is incubated with 50 mM Tris pH 7.5, 0.1 mM EGTA, 0.1 mM Na3VO4, 250 μM KVEKIGEGTYGVVYK (Cdc2 peptide), 10 mM MgAcetate and [γ-^33P-ATP] (specific activity approx. 500 cpm/pmol, concentration as required). The reaction is initiated by the addition of the MgATP mix. After incubation for 40 minutes at room temperature, the reaction is stopped by the addition of 5 μl of a 3% phosphoric acid solution. 10 μl of the reaction is then spotted onto a P30 filtermat and washed three times for 5 minutes in 75 mM phosphoric acid and once in methanol prior to drying and scintillation counting.

Fgr human = Fgr human (Homo sapiens, UniProt P09769); assay: Kinase profiling, glass-fiber filter technology: Fgr; details: test concentration of 10^−6 M; read-out: Fgr inhibition score
Sequence of Fgr human (P09769 whole entry): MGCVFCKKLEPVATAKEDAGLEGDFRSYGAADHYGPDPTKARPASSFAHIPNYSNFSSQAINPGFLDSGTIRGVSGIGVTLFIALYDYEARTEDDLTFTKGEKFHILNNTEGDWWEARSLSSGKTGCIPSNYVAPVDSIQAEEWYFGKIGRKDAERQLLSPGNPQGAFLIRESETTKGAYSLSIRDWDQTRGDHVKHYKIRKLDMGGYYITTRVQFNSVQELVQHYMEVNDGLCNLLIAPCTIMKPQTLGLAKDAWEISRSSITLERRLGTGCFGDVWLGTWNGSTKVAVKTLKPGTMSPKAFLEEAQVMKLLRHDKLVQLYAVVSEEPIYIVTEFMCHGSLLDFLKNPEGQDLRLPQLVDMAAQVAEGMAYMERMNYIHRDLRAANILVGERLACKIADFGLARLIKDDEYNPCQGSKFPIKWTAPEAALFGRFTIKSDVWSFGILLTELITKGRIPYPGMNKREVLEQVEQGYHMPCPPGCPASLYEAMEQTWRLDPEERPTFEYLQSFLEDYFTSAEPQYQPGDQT
Method: as §1, §2, §3, §4
as §5, with “Fgr human” for “Bmx (h)”, “[γ-^33P-ATP]” for “[γ-33P-ATP]”

cSRC (h) = cSRC (h) (Homo sapiens, UniProt P12931); assay: Kinase profiling, glass-fiber filter technology: cSRC; details: test concentration of 10^−6 M; read-out: cSRC inhibition score
Sequence of cSRC (h) (P12931 whole entry): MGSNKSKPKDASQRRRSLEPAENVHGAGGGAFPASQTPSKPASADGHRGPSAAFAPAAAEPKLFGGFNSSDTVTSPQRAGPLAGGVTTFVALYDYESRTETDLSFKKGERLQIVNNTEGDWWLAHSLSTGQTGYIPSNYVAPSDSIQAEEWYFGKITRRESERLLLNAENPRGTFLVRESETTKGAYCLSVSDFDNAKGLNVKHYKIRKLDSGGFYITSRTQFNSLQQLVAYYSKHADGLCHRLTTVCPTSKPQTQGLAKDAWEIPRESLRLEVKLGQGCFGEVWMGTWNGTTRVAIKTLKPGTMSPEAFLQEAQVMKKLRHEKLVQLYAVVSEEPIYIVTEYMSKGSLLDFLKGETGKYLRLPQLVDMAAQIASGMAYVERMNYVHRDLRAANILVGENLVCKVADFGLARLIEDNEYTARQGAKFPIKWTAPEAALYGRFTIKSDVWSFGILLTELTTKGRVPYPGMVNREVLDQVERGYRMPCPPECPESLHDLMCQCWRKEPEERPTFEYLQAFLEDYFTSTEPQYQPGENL
Method: as §1, §2, §3, §4
In a final reaction volume of 25 μl, cSRC (h) (5-10 mU) is incubated with 8 mM MOPS pH 7.0, 0.2 mM EDTA, 250 μM KVEKIGEGTYGVVYK (Cdc2 peptide), 10 mM MgAcetate and [γ-^33P-ATP] (specific activity approx. 500 cpm/pmol, concentration as required). The reaction is initiated by the addition of the MgATP mix. After incubation for 40 minutes at room temperature, the reaction is stopped by the addition of 5 μl of a 3% phosphoric acid solution.
10 μl of the reaction is then spotted onto a P30 filtermat and washed three times for 5 minutes in 75 mM phosphoric acid and once in methanol prior to drying and scintillation counting.

Question: Which inhibition at 1 µM (Bmx (h)) does the source give for `CC(=O)OCCN(C)CCCOc1cc2ncnc3c2cc1OCCCNC(=O)[C@H](C)N(C)Cc1cc(F)c(Cl)cc1N3` [Compound 2] here?
Answer: 30 to 60%

Question: And the inhibition at 1 µM (Yes (h))?
Answer: > 80%

Question: What about the inhibition at 1 µM (Fyn human) of the same compound?
Answer: > 80%

Question: What about the inhibition at 1 µM (Fgr human) of the same compound?
Answer: 10 to 30%

Question: And the inhibition at 1 µM (cSRC (h))?
Answer: > 80%

Question: Which inhibition at 1 µM (Bmx (h)) does the source give for `CC(=O)NCCNCCCOc1cc2ncnc3c2cc1OCCCNC(=O)[C@H](C)N(C)Cc1cc(F)c(Cl)cc1N3` [Compound 4] here?
Answer: 30 to 60%

Question: What about the inhibition at 1 µM (Yes (h)) of the same compound?
Answer: > 80%

Question: And the inhibition at 1 µM (Fyn human)?
Answer: 60 to 80%

Question: And the inhibition at 1 µM (cSRC (h))?
Answer: > 80%

Question: For `CC(=O)N(CCO)CCCOc1cc2ncnc3c2cc1OCCCNC(=O)[C@H](C)N(C)Cc1cc(F)c(Cl)cc1N3` [Compound 5], which inhibition at 1 µM (Bmx (h)) is on record?
Answer: 30 to 60%

Question: What about the inhibition at 1 µM (Yes (h)) of the same compound?
Answer: > 80%

Question: What about the inhibition at 1 µM (Fyn human) of the same compound?
Answer: 60 to 80%

Question: And the inhibition at 1 µM (Fgr human)?
Answer: 10 to 30%

Question: And the inhibition at 1 µM (cSRC (h))?
Answer: > 80%

Question: For `CC(=O)NCCN1CCN(CCCOc2cc3ncnc4c3cc2OCCCNC(=O)[C@H](C)N(C)Cc2cc(F)c(Cl)cc2N4)CC1` [Compound 6], which inhibition at 1 µM (Bmx (h)) is on record?
Answer: 30 to 60%

Question: And the inhibition at 1 µM (Yes (h))?
Answer: > 80%

Question: And the inhibition at 1 µM (Fyn human)?
Answer: > 80%

Question: What about the inhibition at 1 µM (cSRC (h)) of the same compound?
Answer: > 80%

Question: What does the source list for `CN1CCCCCOc2cc3c(ncnc3cc2OCCCNC(=O)OC(C)(C)C)Nc2cc(Br)ccc2C1` [Compound 11]?
Answer: inhibition at 1 µM (Bmx (h)): 10 to 30%; inhibition at 1 µM (Yes (h)): > 80%; inhibition at 1 µM (Fyn human): 60 to 80%; inhibition at 1 µM (Fgr human): 10 to 30%; inhibition at 1 µM (cSRC (h)): 60 to 80%

Question: What does the source list for `CN1CCCCCOc2cc3c(ncnc3cc2OC[C@@H](O)CN2CCS(=O)(=O)CC2)Nc2cc(Br)ccc2C1` [Compound 12]?
Answer: inhibition at 1 µM (Bmx (h)): 30 to 60%; inhibition at 1 µM (Yes (h)): > 80%; inhibition at 1 µM (Fyn human): > 80%; inhibition at 1 µM (Fgr human): 60 to 80%; inhibition at 1 µM (cSRC (h)): > 80%

Question: How did the inhibition at 1 µM (Bmx (h)) turn out when `CC(=O)NCCNCCCOc1cc2ncnc3c2cc1OCCCCCN(C)Cc1ccc(Br)cc1N3` [Compound 13] was run?
Answer: 60 to 80%

Question: And the inhibition at 1 µM (Yes (h))?
Answer: > 80%

Question: What about the inhibition at 1 µM (Fgr human) of the same compound?
Answer: > 80%

Question: And the inhibition at 1 µM (cSRC (h))?
Answer: > 80%

Question: Which results are given for `CN1CCCCCOc2cc3c(ncnc3cc2OCCCNCCS(C)(=O)=O)Nc2cc(Br)ccc2C1` [Compound 14]?
Answer: inhibition at 1 µM (Bmx (h)): 30 to 60%; inhibition at 1 µM (Yes (h)): > 80%; inhibition at 1 µM (Fgr human): 60 to 80%; inhibition at 1 µM (cSRC (h)): > 80%

Question: For `COc1cc2ncnc3c2cc1OCCCN(CCN1CCOCC1)C(=O)CNC(=O)Cc1ccc(Cl)cc1N3` [Compound 15], which inhibition at 1 µM (Yes (h)) is on record?
Answer: 60 to 80%

Question: What about the inhibition at 1 µM (Fyn human) of the same compound?
Answer: 30 to 60%

Question: And the inhibition at 1 µM (cSRC (h))?
Answer: 30 to 60%

Question: How did the inhibition at 1 µM (Bmx (h)) turn out when `CN1CCCCCOc2cc3c(ncnc3cc2OC[C@H](O)CNCCOCCO)Nc2cc(Cl)c(F)cc2C1` [Compound 17] was run?
Answer: 60 to 80%

Question: And the inhibition at 1 µM (Yes (h))?
Answer: > 80%

Question: What about the inhibition at 1 µM (Fyn human) of the same compound?
Answer: > 80%

Question: And the inhibition at 1 µM (cSRC (h))?
Answer: > 80%

Question: With `CN1CCCCCOc2cc3c(ncnc3cc2OCCCNCCS(C)(=O)=O)Nc2cc(Cl)c(F)cc2C1` [Compound 18] as the compound, how does the inhibition at 1 µM (Bmx (h)) read?
Answer: 30 to 60%

Question: What about the inhibition at 1 µM (Yes (h)) of the same compound?
Answer: > 80%

Question: And the inhibition at 1 µM (Fyn human)?
Answer: > 80%

Question: And the inhibition at 1 µM (cSRC (h))?
Answer: > 80%

Question: For `CN1CCCCCOc2cc3c(ncnc3cc2OCCCN2CCS(=O)(=O)CC2)Nc2cc(Cl)c(F)cc2C1` [Compound 19], which inhibition at 1 µM (Bmx (h)) is on record?
Answer: 60 to 80%

Question: What about the inhibition at 1 µM (Yes (h)) of the same compound?
Answer: > 80%

Question: What about the inhibition at 1 µM (Fyn human) of the same compound?
Answer: > 80%

Question: What about the inhibition at 1 µM (Fgr human) of the same compound?
Answer: 60 to 80%

Question: What about the inhibition at 1 µM (cSRC (h)) of the same compound?
Answer: > 80%

Question: For `C#Cc1ccc2c(c1)Nc1ncnc3cc(OCCCNCCS(C)(=O)=O)c(cc13)OCCCCCN(C)C2` [Compound 20], which inhibition at 1 µM (Bmx (h)) is on record?
Answer: 60 to 80%

Question: And the inhibition at 1 µM (Yes (h))?
Answer: > 80%

Question: And the inhibition at 1 µM (Fgr human)?
Answer: > 80%

Question: And the inhibition at 1 µM (cSRC (h))?
Answer: > 80%

Question: Which inhibition at 1 µM (Bmx (h)) does the source give for `C[C@H]1C(=O)NCCCOc2cc3c(ncnc3cc2OCCCN2CCN(C(=O)OC(C)(C)C)CC2)Nc2cc(Cl)c(F)cc2CN1C` [Int. 16] here?
Answer: 30 to 60%

Question: And the inhibition at 1 µM (Fyn human)?
Answer: > 80%

Question: And the inhibition at 1 µM (Fgr human)?
Answer: 10 to 30%

Question: What about the inhibition at 1 µM (cSRC (h)) of the same compound?
Answer: > 80%

Question: Which results are given for `COc1cc2ncnc3c2cc1OCCCN(CCCN1CCOCC1)C(=O)[C@H](CC(C)C)NC(=O)Cc1ccc(Br)cc1N3` [Int. 25]?
Answer: inhibition at 1 µM (Yes (h)): > 80%; inhibition at 1 µM (Fyn human): 30 to 60%; inhibition at 1 µM (cSRC (h)): 30 to 60%

Question: What does the source list for `COCCOCCOc1cc2ncnc3c2cc1OCCCCCN(C)Cc1ccc(Br)cc1N3` [Int. 43]?
Answer: inhibition at 1 µM (Yes (h)): > 80%; inhibition at 1 µM (Fyn human): > 80%; inhibition at 1 µM (Fgr human): 30 to 60%; inhibition at 1 µM (cSRC (h)): > 80%
